Results reported in patent US20040086891A1, “Dehydrogenase oligomeric modulators” (priority 1998, published 2004).
Entries after “also recorded” stand apart in the source; their conditions may differ.

Legend:
COS and Hek cells = assay: GAPDH-GFP fusion protein localization in living COS and Hek cells (LCSM); format: cell-based; settings: first two hours after exposure
Text: GAPDH cDNA was cloned from rat brain using oligonucleotides designed to the 5′- and 3′-ends of the coding region of rat GAPDH with PCR. The cDNA was used to produce a GAPDH-green fluorescent protein (GFP) construct by adding a 3′ oligo (Gly)s to the C-terminus of GAPDH followed by a BamHI site to allow subcloning, in frame, into pEGFP-1 (Clontech). The resulting construct contains GAPDH followed by (Gly)5 and enhanced GFP. The insert was subcloned into the Hindlil-Notl sites of pcDNA3. The GAPDH-GFP construct has been transiently transfected into COS1 cells and stably transfected into HEK 293 cells.
Apoptosis was induced in the living COS and Hek cells maintained in a physiological chamber on LCSM. […] These experiments established that GAPDH nuclear translocation occurs dynamically during the very early stages of apoptosis and indicate that GAPDLH participates in the initiation phase of apoptosis.

GAPDH [1] = assay: GAPDH protein levels in early apoptosis after trophic withdrawal; format: cell-based; settings: increase begins 1.5 to 2.0 hours after trophic withdrawal
Text: (§1) As well as the nuclear translocation, GAPDH levels increase rapidly in the early phases of apoptosis. […] At least three molecules associated with toxin-induced neuronal apoptosis—nitric oxide, superoxide radical and peroxynitrite—have the capacity to free GAPDH from AU-rich RNA (Beckman and Koppenol, 1996). Nitric oxide modifies the structure of GAPDH and appears to free it from AU-rich RNA (Brune and Lapetina, 1995; Brune and Lapetina, 1996; Itoga et al., 1997; McDonald and Moss, 1994). Oxygen free radicals enhance the binding of NAD^+ to GAPDH (Marin et al., 1995). If, in fact, GAPDH translocation to the nucleus does initiate or facilitate apoptosis, then ROS and NO may induce apoptosis through GAPDH.

fibroblasts = assay: GAPDH nuclear translocation in fibroblasts treated with NAD+; format: cell-based
GAPDH [2] = molecular target: T1, GAPDH (Homo sapiens, UniProt P04406); assay: Release of GAPDH from AU-rich RNA and glycolytic activity; format: biochemical
Text: as §1

GAPDH [3] = molecular target: T1, GAPDH; assay: Photoaffinity binding and BODIPY-labelled CGP3466 protein binding study; settings: photoaffinity binding techniques, BODIPY chromogen
Text: It was also shown that there was an increase in GAPDH levels found in early apoptosis. Photoaffinity binding techniques and a BODIPY chromogen attached to dibenzo[bf]oxepin-10-ylmethyl-prop-2-ynyl-amine (CGP3466), were used to study the protein and subcellular binding of (−)-desmethyldeprenyl (DES) and CGP3466.

PC12 cells = assay: Subcellular localization of GAPDH in PC12 cells entering apoptosis (immunocytochemistry, LCSM); format: cell-based; settings: early apoptosis, 3-12 hours after serum and NGF withdrawal
Text: (§2) The subcellular localization of GAPDH in PC12 cells entering apoptosis using immunocytochemistry and LCSM has been studied.

GAPDH [4] = molecular target: T1, GAPDH; assay: Size exclusion chromatography of the oligomeric state of GAPDH; format: biochemical; settings: for oligomeric state of GAPDH bound to poly-U RNA: size exclusion chromatography, GAPDH largely tetrameric without compound; for oligomeric state of GAPDH in the presence of SDS: sodium dodecyl sulfate added, untreated protein becomes monomeric
Procedure: A dehydrogenase oligomeric modulator is identified using size exclusion chromatographic (SEC) techniques. A test compound is tested for its ability to prevent tetramer formation of GAPDH and compounds capable of preventing or inhibiting such formation are identified as DOMs. SEC is used to determine if potential compounds affect the oligomeric state of GAPDH (or any oligomeric protein) when contacted with GAPDH under conditions which promote oligomer formation. This method can be further refined and sped up (i.e., faster data collection) by using SEC-high performance liquid chromatographic (SEC-HPLC) methods. An example is set forth below.
A column was made using a disposable 1 cm diameter column (BIORAD). The chosen matrix for the column was Sephacryl H-300 (PHARMACIA). The column was poured by mixing the beads (SEPHACRYL) in a buffer and layering into the column until the bed was about 12 cm long. The buffer used was 50 mM TRIS—HCl, pH 8.0. The column was then washed with the same buffer for 10 column volumes.
A selection.of protein standards of known molecular weight was run through the column.
Once the column is calibrated, the molecular weight of the eluted fractions (in this case, GAPDH monomers, dimers and tetramers) may be determined.
Prior to moving the proteins to the column they are contacted with candidate compound and mixed at room temperature in, e.g., nanomolar concentrations under conditions known to those skilled in the art.
The mixture prepared above is then added to the column and eluted with 50 mM TRIS—HCl pH 8.0 buffer. 500 μl fractions of the eluent are collected. The optical density of the fractions is then determined, e.g., at 280 nm, and an elution profile prepared and analyzed to determine the extent of oligomerization.
GAPDH is a tetramer consisting of four identical monomers (FIG. 1). The tetramer exists in equilibrium between tetramers, dimers and monomers. This equilibrium strongly favors the tetrameric form. Upon tetramer formation, there is a channel present between the four monomers. […] As such, the ability of (−)-desmethyldeprenyl and CGP3466 to decrease GAPDH tetramer and increase GAPDH dimer in vitro identifies these compounds as oligomeric modulators of GAPDH.

GAPDH [5] = molecular target: T1, GAPDH; assay: Antibody blocking experiment for drug binding in the GAPDH channel; settings: protein first treated with antibody, then drug
Procedure: Antibody blocking experiments were conducted to confirm that CGP3466 bound GAPDH in the channel. In FIG. 2, GAPDH is shown in blue with the site for an antibody which was raised to a certain part of GAPDH is green.

[6] = system: partially differentiated PC12 cells or fibroblasts; assay: Apoptosis and GAPDH nuclear translocation after NO donor treatment; format: cell-based
Text: as §2

GAPDH [7] = molecular target: T1, GAPDH; settings: cited from earlier work
NG108-15 cells = settings: cited from earlier work

T1 sequence (P04406 whole entry, species assumed): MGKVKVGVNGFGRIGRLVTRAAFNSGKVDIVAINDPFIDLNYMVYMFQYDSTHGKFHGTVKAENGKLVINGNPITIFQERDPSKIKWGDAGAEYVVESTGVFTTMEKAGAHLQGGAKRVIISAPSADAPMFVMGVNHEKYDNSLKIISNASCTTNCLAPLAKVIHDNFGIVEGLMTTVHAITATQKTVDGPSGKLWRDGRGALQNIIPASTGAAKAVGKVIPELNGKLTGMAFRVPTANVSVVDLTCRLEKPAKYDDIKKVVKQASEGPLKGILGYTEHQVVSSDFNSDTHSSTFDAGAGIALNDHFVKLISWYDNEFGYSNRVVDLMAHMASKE

## O=C([O-])c1c(Cl)c(Cl)c(Cl)c(Cl)c1-c1c2cc(I)c(=O)c(I)c-2oc2c(I)c([O-])c(I)cc12.[Na+].[Na+] [Rose Bengal]
COS and Hek cells
  localization of GAPDH-GFP fusion protein: concentrate in the nucleus of a proportion of the cells

## CC(=O)N[C@@H](CS)C(=O)O [NAC, N-acetyl cysteine]
GAPDH [1]
  increase in GAPDH protein levels in early apoptosis: prevent the increase

## NC(=O)c1ccc[n+]([C@@H]2O[C@H](COP(=O)([O-])OP(=O)(O)OC[C@H]3O[C@@H](n4cnc5c(N)ncnc54)[C@H](O)[C@@H]3O)[C@@H](O)[C@H]2O)c1 [NAD^+]
fibroblasts
  nuclear translocation of GAPDH: induced the dense translocation of GAPDH to the nucleus
GAPDH [2]
  GAPDH glycolytic activity: increases the enzyme's glycolytic activity
  release of GAPDH from AU-rich RNA: releases GAPDH from AU-rich RNA

## C#CCNCC1=Cc2ccccc2Oc2ccccc21 [CGP3466, dibenzo[bf]oxepin-10-ylmethyl-prop-2-ynyl-amine]
GAPDH [3]
  binding to GAPDH: bind to GAPDH
  proteins bound: tubulin, actin, synapsin and GAPDH
PC12 cells
  nuclear translocation (relocation) of GAPDH: prevent the nuclear relocation of GAPDH; also recorded: blocked the nuclear translocation
GAPDH [1]
  increase in GAPDH protein levels in early apoptosis: prevent the increase
GAPDH [4]
  effect on the GAPDH tetramer: disrupt the tetramer forming dimers
  oligomeric state of GAPDH bound to poly-U RNA: converted to a dimer
  oligomeric state of GAPDH in the presence of SDS: convert it to a dimer
GAPDH [4]; listed as CGP 3466
  oligomeric state of GAPDH in the presence of SDS: remains dimeric
GAPDH [5]
  drug binding to GAPDH after pre-treatment with antibody to the channel site: no binding

## CC(=O)N[C@@H](C(=O)O)C(C)(C)SN=O (racemic) [SNAP]
[6]
  induction of apoptosis: induced apoptosis

## CC(C)[C@H]1CC[C@@]2(CO2)[C@H]2C(=O)OCC(C(=O)O)=C[C@H]12 [Koningic acid]
GAPDH [7]
  GAPDH glycolytic function: inhibits GAPDH glycolytic function
NG108-15 cells
  induction of apoptosis: induces apoptosis

## C#CCNC(C)Cc1ccccc1 (single isomer, unassigned; (-)) [(−)-desmethyldeprenyl]
GAPDH [3]
  binding to GAPDH: bind to GAPDH
PC12 cells
  nuclear translocation (relocation) of GAPDH: prevent the nuclear relocation of GAPDH
PC12 cells; listed as DES
  nuclear translocation (relocation) of GAPDH: blocked the nuclear translocation
GAPDH [1]
  increase in GAPDH protein levels in early apoptosis: prevent the increase
GAPDH [4]
  effect on the GAPDH tetramer: disrupt the tetramer forming dimers
  oligomeric state of GAPDH bound to poly-U RNA: converted to a dimer
  oligomeric state of GAPDH in the presence of SDS: remains dimeric
GAPDH [4]; listed as DES
  oligomeric state of GAPDH in the presence of SDS: convert it to a dimer
